Test results: patent publication US20240208992A1, “MACROCYCLES AS CFTR MODULATORS” (Idorsia Pharmaceuticals Ltd, priority 2021, published 2024)

Biological target: human F508del-CFTR (Homo sapiens, UniProt P13569, DEL508-508)
Assay: F508del-CFTR cell surface expression (corrector activity), DiscoveRx ß-galactosidase complementation chemiluminescence assay in recombinant U2OS cell line;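 further: U2OS cells co-expressing ProLink-tagged F508del-CFTR and a membrane-anchored enzyme acceptor, where more surface CFTR restores β-galactosidase activity measured by chemiluminescence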
Conditions: for EC50: EC50, F508del-CFTR cell surface expression, U2OS cells, 16h compound incubation, geomean values; for Emax: U2OS, in relation to Emax of corrector lumacaftor (=100%), arithmetic mean values

Chain of human F508del-CFTR (P13569 with tags, fused parts or gaps DEL508-508): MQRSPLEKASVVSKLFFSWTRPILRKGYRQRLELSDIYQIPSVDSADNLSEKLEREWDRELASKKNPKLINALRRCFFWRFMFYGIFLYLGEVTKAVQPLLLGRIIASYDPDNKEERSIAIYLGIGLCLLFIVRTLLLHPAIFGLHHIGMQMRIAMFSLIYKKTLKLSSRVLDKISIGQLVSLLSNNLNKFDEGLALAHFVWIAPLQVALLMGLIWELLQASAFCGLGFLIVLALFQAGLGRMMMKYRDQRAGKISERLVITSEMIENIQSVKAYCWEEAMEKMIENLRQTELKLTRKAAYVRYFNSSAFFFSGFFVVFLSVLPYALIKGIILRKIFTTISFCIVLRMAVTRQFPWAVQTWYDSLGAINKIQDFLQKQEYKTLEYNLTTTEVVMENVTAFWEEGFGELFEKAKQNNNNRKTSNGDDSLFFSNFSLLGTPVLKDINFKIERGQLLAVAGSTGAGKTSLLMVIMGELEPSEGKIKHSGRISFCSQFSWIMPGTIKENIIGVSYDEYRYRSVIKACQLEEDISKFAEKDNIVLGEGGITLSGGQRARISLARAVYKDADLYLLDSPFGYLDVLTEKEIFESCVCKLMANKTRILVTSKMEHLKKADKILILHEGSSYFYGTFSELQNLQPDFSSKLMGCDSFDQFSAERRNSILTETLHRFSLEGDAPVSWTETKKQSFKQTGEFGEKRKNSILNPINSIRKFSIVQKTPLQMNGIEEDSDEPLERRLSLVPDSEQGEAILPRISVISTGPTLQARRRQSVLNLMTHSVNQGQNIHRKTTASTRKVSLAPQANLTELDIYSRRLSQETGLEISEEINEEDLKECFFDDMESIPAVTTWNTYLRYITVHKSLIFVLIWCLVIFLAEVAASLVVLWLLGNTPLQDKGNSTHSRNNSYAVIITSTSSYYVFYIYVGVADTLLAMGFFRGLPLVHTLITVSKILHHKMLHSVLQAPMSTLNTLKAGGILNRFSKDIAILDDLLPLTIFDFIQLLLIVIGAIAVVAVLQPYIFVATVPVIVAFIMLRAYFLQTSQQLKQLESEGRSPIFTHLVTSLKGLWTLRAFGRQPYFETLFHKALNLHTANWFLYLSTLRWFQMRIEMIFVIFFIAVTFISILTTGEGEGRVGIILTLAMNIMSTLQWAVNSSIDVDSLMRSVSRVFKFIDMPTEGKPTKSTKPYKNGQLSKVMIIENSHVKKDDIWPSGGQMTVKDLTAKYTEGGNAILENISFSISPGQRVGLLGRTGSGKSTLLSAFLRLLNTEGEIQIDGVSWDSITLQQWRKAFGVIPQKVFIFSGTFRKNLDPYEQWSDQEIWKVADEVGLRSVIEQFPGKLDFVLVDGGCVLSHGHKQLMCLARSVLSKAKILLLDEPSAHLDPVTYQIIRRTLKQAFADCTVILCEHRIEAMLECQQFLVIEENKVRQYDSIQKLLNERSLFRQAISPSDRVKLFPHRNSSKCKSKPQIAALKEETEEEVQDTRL

Row | EC50 [nM] | Emax [%] | SMILES
1 | 706 | 200 | COCCC(=O)N1CCN2C(=O)[C@H](CC(C)C)N(C)C(=O)C[C@@H](C(=O)NCCc3cccc(OC)c3)NC(=O)c3c(ccc4ccccc34)OC[C@@H](Cc3ccccc3)NC(=O)[C@H]2C1 [Example 752, (4aR,7R,18S,22S)-7-benzyl-22-isobutyl-N-(3-methoxyphenethyl)-3-(3-methoxypropanoyl)-21-methyl-5,16,20,23-tetraoxo-2,3,4,4a,5,6,7,8,16,17,18,19,20,21,22,23-hexadecahydro-1H-naphtho[1,2-p]pyrazino[2,1-f][1]oxa[4,7,10,14]tetraazacycloheptadecine-18-carboxamide]
2 | 219 | 279 | COC(=O)N1CCN2C(=O)[C@H](CC(C)C)N(C)C(=O)C[C@@H](C(=O)NCCc3cccc(OC)c3)NC(=O)c3c(ccc4ccccc34)OC[C@@H](Cc3ccccc3)NC(=O)[C@H]2C1 [Example 754, Methyl (4aR,7R,18S,22S)-7-benzyl-22-isobutyl-18-((3-methoxyphenethyl)carbamoyl)-21-methyl-5,16,20,23-tetraoxo-1,2,4,4a,5,6,7,8,16,17,18,19,20,21,22,23-hexadecahydro-3H-naphtho[1,2-p]pyrazino[2,1-f][1]oxa[4,7,10,14]tetraazacycloheptadecine-3-carboxylate]
3 | 168 | 270 | CCOC(=O)N1CCN2C(=O)[C@H](CC(C)C)N(C)C(=O)C[C@@H](C(=O)NCCc3cccc(OC)c3)NC(=O)c3c(ccc4ccccc34)OC[C@@H](Cc3ccccc3)NC(=O)[C@H]2C1 [Example 755, ethyl (4aR,7R,18S,22S)-7-benzyl-22-isobutyl-18-((3-methoxyphenethyl)carbamoyl)-21-methyl-5,16,20,23-tetraoxo-1,2,4,4a,5,6,7,8,16,17,18,19,20,21,22,23-hexadecahydro-3H-naphtho[1,2-p]pyrazino[2,1-f][1]oxa[4,7,10,14]tetraazacycloheptadecine-3-carboxylate]
4 | 296 | 131 | CC(C)C[C@H]1C(=O)N2CCOC[C@@H]2C(=O)N[C@H](Cc2ccccc2)COc2ccc3ccccc3c2C(=O)N[C@H](C(=O)NCCc2cccc(C#N)c2)CC(=O)N1C [Example 759, (4aR,7R,18S,22S)-7-Benzyl-N-(3-cyanophenethyl)-22-isobutyl-21-methyl-5,16,20,23-tetraoxo-1,2,4,4a,5,6,7,8,16,17,18,19,20,21,22,23-hexadecahydronaphtho[1,2-p][1,4]oxazino[3,4-f][1]oxa[4,7,10,14]tetraazacycloheptadecine-18-carboxamide]
5 | 676 | 202 | Cc1nc2ccc3c(c2o1)C(=O)N[C@H](C(=O)NCCc1cc(-c2ccccc2)no1)CC(=O)N(C)[C@@H](CC(C)C)C(=O)N(C)C1(CC1)C(=O)N[C@H](Cc1ccccc1)CO3 [Example 761, (8′R,14'S,18'S)-8′-Benzyl-14′-isobutyl-2′,12′,15′-trimethyl-10′,13′,16′,20′-tetraoxo-N-(2-(3-phenylisoxazol-5-yl)ethyl)-7′,8′,9′,10′,13′,14′,15′,16′,17′,18′,19′,20′-dodecahydro-12′H-spiro[cyclopropane-1,11′-oxazolo[4′,5′:5,6]benzo[1,2-p][1]oxa[4,7,10,14]tetraazacycloheptadecine]-18′-carboxamide]
6 | 929 | 333 | Cc1nc2ccc3c(c2o1)C(=O)N[C@H](C(=O)NCCc1cc(C(C)C)no1)CC(=O)N(C)[C@@H](CC(C)C)C(=O)N(C)C1(CC1)C(=O)N[C@H](Cc1ccccc1)CO3 [Example 762, (8′R,14'S,18'S)-8′-Benzyl-14′-isobutyl-N-(2-(3-isopropylisoxazol-5-yl)ethyl)-2′,12′,15′-trimethyl-10′,13′,16′,20′-tetraoxo-7′,8′,9′,10′,13′,14′,15′,16′,17′,18′,19′,20′-dodecahydro-12′H-spiro[cyclopropane-1,11′-oxazolo[4′,5′:5,6]benzo[1,2-p][1]oxa[4,7,10,14]tetraazacycloheptadecine]-18′-carboxamide]
7 | 264 | 181 | CC(C)C[C@H]1C(=O)N(C)C2(CC2)C(=O)N[C@H](Cc2ccccc2)COc2cnc3ccccc3c2C(=O)N[C@H](C(=O)NCCc2nc(Cc3ccccc3)no2)CC(=O)N1C [Example 763, (3'S,7'S,13′R)-13′-Benzyl-N-(2-(3-benzyl-1,2,4-oxadiazol-5-yl)ethyl)-7′-isobutyl-6′,9′-dimethyl-1′,5′,8′,11′-tetraoxo-2′,3′,4′,5′,6′,7′,8′,9′,11′,12′,13′,14′-dodecahydro-1′H-spiro[cyclopropane-1,10′-[1]oxa[4,7,10,14]tetraazacycloheptadecino[17,16-c]quinoline]-3′-carboxamide]
8 | 374 | 315 | CC(C)C[C@H]1C(=O)N(C)C2(CC2)C(=O)N[C@H](Cc2ccccc2)COc2cnc3ccccc3c2C(=O)N[C@H](C(=O)NCCc2nc(CC3CC3)no2)CC(=O)N1C [Example 764, (3'S,7'S,13′R)-13′-Benzyl-N-(2-(3-(cyclopropylmethyl)-1,2,4-oxadiazol-5-yl)ethyl)-7′-isobutyl-6′,9′-dimethyl-1′,5′,8′,11′-tetraoxo-2′,3′,4′,5′,6′,7′,8′,9′,11′,12′,13′,14′-dodecahydro-1′H-spiro[cyclopropane-1,10′-[1]oxa[4,7,10,14]tetraazacycloheptadecino[17,16-c]quinoline]-3′-carboxamide]

Row | SMILES | EC50 [nM] | Emax [%]
9 | COc1cccc(CCNC(=O)[C@@H]2CC(=O)N(C)[C@@H](CC(C)C)C(=O)N3CCN(C(C)=O)C[C@@H]3C(=O)N[C@H](Cc3ccccc3)COc3ccc4ccccc4c3C(=O)N2)c1 [Example 750, (4aR,7R,18S,22S)-3-Acetyl-7-benzyl-22-isobutyl-N-(3-methoxyphenethyl)-21-methyl-5,16,20,23-tetraoxo-2,3,4,4a,5,6,7,8,16,17,18,19,20,21,22,23-hexadecahydro-1H-naphtho[1,2-p]pyrazino[2,1-f][1]oxa[4,7,10,14]tetraazacycloheptadecine-18-carboxamide] | 784 | 267
10 | COc1cccc(CCNC(=O)[C@@H]2CC(=O)N(C)[C@@H](CC(C)C)C(=O)N3CCN(C(=O)CC(C)C)C[C@@H]3C(=O)N[C@H](Cc3ccccc3)COc3ccc4ccccc4c3C(=O)N2)c1 [Example 751, (4aR,7R,18S,22S)-7-benzyl-22-isobutyl-N-(3-methoxyphenethyl)-21-methyl-3-(3-methylbutanoyl)-5,16,20,23-tetraoxo-2,3,4,4a,5,6,7,8,16,17,18,19,20,21,22,23-hexadecahydro-1H-naphtho[1,2-p]pyrazino[2,1-f][1]oxa[4,7,10,14]tetraazacycloheptadecine-18-carboxamide] | 217 | 213
11 | COc1cccc(CCNC(=O)[C@@H]2CC(=O)N(C)[C@@H](CC(C)C)C(=O)N3CCN(C(=O)c4cnccn4)C[C@@H]3C(=O)N[C@H](Cc3ccccc3)COc3ccc4ccccc4c3C(=O)N2)c1 [Example 753, (4aR,7R,18S,22S)-7-benzyl-22-isobutyl-N-(3-methoxyphenethyl)-21-methyl-5,16,20,23-tetraoxo-3-(pyrazine-2-carbonyl)-2,3,4,4a,5,6,7,8,16,17,18,19,20,21,22,23-hexadecahydro-1H-naphtho[1,2-p]pyrazino[2,1-f][1]oxa[4,7,10,14]tetraazacycloheptadecine-18-carboxamide] | 430 | 264
12 | COc1cccc(CCNC(=O)[C@@H]2CC(=O)N(C)[C@@H](CC(C)C)C(=O)N3CCN(C(=O)OC4CCOCC4)C[C@@H]3C(=O)N[C@H](Cc3ccccc3)COc3ccc4ccccc4c3C(=O)N2)c1 [Example 756, Tetrahydro-2H-pyran-4-yl (4aR,7R,18S,22S)-7-benzyl-22-isobutyl-18-((3-methoxyphenethyl)carbamoyl)-21-methyl-5,16,20,23-tetraoxo-1,2,4,4a,5,6,7,8,16,17,18,19,20,21,22,23-hexadecahydro-3H-naphtho[1,2-p]pyrazino[2,1-f][1]oxa[4,7,10,14]tetraazacycloheptadecine-3-carboxylate] | 311 | 252
13 | COc1cccc(CCNC(=O)[C@@H]2CC(=O)N(C)[C@@H](CC(C)C)C(=O)N3CCN([S@](=O)(=NC(=O)OC(C)(C)C)c4ccccc4)C[C@@H]3C(=O)N[C@H](Cc3ccccc3)COc3ccc4ccccc4c3C(=O)N2)c1 [Example 757, tert-Butyl (((4aR,7R,18S,22S)-7-benzyl-22-isobutyl-18-((3-methoxyphenethyl)carbamoyl)-21-methyl-5,16,20,23-tetraoxo-1,2,4,4a,5,6,7,8,16,17,18,19,20,21,22,23-hexadecahydro-3H-naphtho[1,2-p]pyrazino[2,1-f][1]oxa[4,7,10,14]tetraazacycloheptadecin-3-yl)(oxo)(phenyl)-16-sulfaneylidene)carbamate] | 145 | 280
14 | COc1cccc(CCNC(=O)[C@@H]2CC(=O)N(C)[C@@H](CC(C)C)C(=O)N3CCN([S@@](=N)(=O)c4ccccc4)C[C@@H]3C(=O)N[C@H](Cc3ccccc3)COc3ccc4ccccc4c3C(=O)N2)c1 [Example 758, (4aR,7R,18S,22S)-7-Benzyl-22-isobutyl-N-(3-methoxyphenethyl)-21-methyl-5,16,20,23-tetraoxo-3-(phenylsulfonimidoyl)-2,3,4,4a,5,6,7,8,16,17,18,19,20,21,22,23-hexadecahydro-1H-naphtho[1,2-p]pyrazino[2,1-f][1]oxa[4,7,10,14]tetraazacycloheptadecine-18-carboxamide] | 334 | 266
15 | COc1cccc(CCNC(=O)[C@@H]2CC(=O)N(C)[C@@H](CC(C)C)C(=O)N3CCCC[C@@H]3C(=O)N[C@H](Cc3ccccc3)COc3c[n+]([O-])c4ccccc4c3C(=O)N2)c1 [Example 760, (9S,13S,19aR,22R)-22-Benzyl-13-isobutyl-9-((3-methoxyphenethyl)carbamoyl)-12-methyl-7,11,14,20-tetraoxo-7,8,9,10,11,12,13,14,17,18,19,19a,20,21,22,23-hexadecahydro-16H-pyrido[2′,1′:6,7][1]oxa[4,7,10,14]tetraazacycloheptadecino[17,16-c]quinoline 2-oxide] | 723 | 333
